The source of these data is patent US7208517B1, “Endothelin antagonists” (Abbott Labortories, priority 1994, dated 2007).

For the experiment, the target named is T1, ETA Receptor (Rattus norvegicus, UniProt P26684).
T1 construct: endogenous in cells; host or cells: MMQ rat pituitary cells (membranes)
T1 sequence (P26684 21-426): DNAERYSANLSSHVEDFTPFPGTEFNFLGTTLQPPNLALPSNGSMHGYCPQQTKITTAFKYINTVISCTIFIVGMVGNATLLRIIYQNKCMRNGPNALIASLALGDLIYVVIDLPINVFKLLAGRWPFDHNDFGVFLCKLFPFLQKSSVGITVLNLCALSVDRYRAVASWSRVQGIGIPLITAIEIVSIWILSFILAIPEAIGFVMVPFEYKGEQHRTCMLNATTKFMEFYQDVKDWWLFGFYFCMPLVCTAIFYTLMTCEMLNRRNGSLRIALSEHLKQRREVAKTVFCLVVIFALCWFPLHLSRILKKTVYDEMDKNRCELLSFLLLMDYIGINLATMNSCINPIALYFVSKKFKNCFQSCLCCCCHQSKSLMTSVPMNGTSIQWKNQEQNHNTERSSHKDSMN
The experiment in a line: [125I]ET-1 binding to membranes from MMQ cells (ETA receptor binding assay, Table 4). As to conditions: test compound at 1 μM; 0.1 nM [125I]ET-1, MMQ cell membranes, 4 hours at 25° C. The protocol: Preparation of Membranes from MMQ Cells:
MMQ [MacLeod/MacQueen/Login cell line (prolactin secreting rat pituitary cells)] cells from 150 mL culture flasks were collected by centrifugation (1000×g for 10 min) and then homogenized in 25 mL of 10 mM Hepes (pH 7.4) containing 0.25 M sucrose and protease inhibitors [3 mM EDTA, 0.1 mM PMSF, and 5 μg/mL Pepstatin A] by a micro ultrasonic cell disrupter (Kontes). The mixture was centrifuged at 1000×g for 10 min. The supernatant was collected and centrifuged at 60,000×g for 60 min. The precipitate was resuspended in 20 mM Tris, pH 7.4 containing the above protease inhibitors and centrifuged again. The final pellet was resuspended in 20 mM Tris, pH 7.4 containing protease inhibitors and stored at −80° C. until used. Protein content was determined by the Bio-Rad dye-binding protein assay.
Binding assays were performed in 96-well microtiter plates pretreated with 0.1% BSA. […] After incubation, unbound ligands were separated from bound ligands by a vacuum filtration method using glass-fiber filter strips in PHD cell harvesters (Cambridge Technology, Inc., MA), followed by washing the filter strips with saline (1 mL) for three times. Nonspecific binding was determined in the presence of 1 μM ET-1.

In the case of `CC[S+]([O-])CCN1CC(c2ccc3c(c2)OCO3)C(C(=O)O)C1c1ccc(OC)cc1` (stereo not drawn) [Example 57, trans,trans-2-(4-Methoxyphenyl)-4-(1,3-benzodioxol-5-yl)-1-(2-(ethylsulfinyl)ethyl)-pyrrolidine-3-carboxylic acid], the “% Inhibition of ETA at 1 μM” value was 93.2%.
Then `CCCN(CCN1CC(c2ccc3c(c2)OCO3)C(C(=O)O)C1c1ccc(OC)cc1)S(=O)(=O)c1cccc2c(N(C)C)cccc12` (stereo not drawn) [Example 127, trans,trans-1-(2-(N-Propyl-N-(5-dimethylamino-1-naphthylsulfonyl)amino)ethyl)-2-(4-methoxyphenyl)-4-(1,3-benzodioxol-5-yl)pyrrolidine-3-carboxylic acid], with 91.4%; and `C#CCN(C)C(=O)CN1CC(c2ccc3c(c2)OCO3)C(C(=O)O)C1c1ccc(OC)cc1` (stereo not drawn) [Example 41, trans,trans-2-(4-Methoxyphenyl)-4-(1,3-benzodioxol-5-yl)-1-(N-methyl-N-(2-propynyl)aminocarbonylmethyl)-pyrrolidine-3-carboxylic acid], with 89.9%; and `COc1ccc(C2C(C(=O)O)C(c3ccc4c(c3)OCO4)CN2CC(=O)N(C)Cc2ccc(OC)c(OC)c2)cc1` (stereo not drawn) [Example 73C, trans,trans-2-(4-Methoxyphenyl)-4-(1,3-benzodioxol-5-yl)-1-(N-(3,4-dimethoxybenzyl)-N-methylaminocarbonylmethyl)pyrrolidine-3-carboxylic acid], with 96.3%.
For `CCCN(CCN1CC(c2ccc3c(c2)OCO3)C(C(=O)O)C1c1ccc(OC)cc1)C(=O)OC(C)(C)C` (stereo not drawn) [Example 312, trans—trans-2-(4-Methoxyphenyl)-4-(1,3-benzodioxol-5-yl)-1-[2-(N-propyl-N-tert-butoxycarbonylamino)ethyl]-pyrrolidine-3-carboxylic acid], the “% Inhibition of ETA at 1 μM” value is 88.2%.
Next, `COc1ccc(C2C(C(=O)O)C(c3ccc4c(c3)OCO4)CN2CC(=O)N(CCC(C)C)CCC(C)C)cc1` (stereo not drawn) [Example 34, trans,trans-2-(4-Methoxyphenyl)-4-(1,3-benzodioxol-5-yl)-1-(N,N-diisoamylaminocarbonylmethyl)-pyrrolidine-3carboxylic acid]: 95.5%; `CCCN(C)C(=O)CN1CC(c2cccc3occc23)C(C(=O)O)C1c1ccc(OC)cc1` (stereo not drawn) [Example 135B, trans,trans-1-(N-Methyl-N-propylaminocarbonylmethyl)-2-(4-methoxyphenyl)-4-(4-benzofuranyl)pyrrolidine-3-carboxylic acid]: 77.7%.
For `C=C(C)CS(=O)(=O)N(CCC)CCN1CC(c2ccc3c(c2)OCO3)C(C(=O)O)C1c1ccc(OC)cc1` (stereo not drawn) [Example 301, trans,trans-2-(4-Methoxyphenyl)-4-(1,3-benzodioxol-5-yl)-1-(2-(N-propyl-N-(2-methyl-2-propenesulfonyl)amino)ethyl)-pyrrolidine-3-carboxylic acid], the “% Inhibition of ETA at 1 μM” value is given as 96.7%.
Next, `CCCCN(CCCC)C(=O)CN1CC(c2ccc3c(c2)CCO3)C(C(=O)O)C1c1ccoc1` (stereo not drawn) [Example 163, trans,trans-1-(N,N-Di(n-butyl)aminocarbonylmethyl)-2-(3-furyl)-4-(5-benzo-2,3-dihydrofuranyl)pyrrolidine-3-carboxylic acid]: 90.6%.
Next, `CCCN(C)C(=O)CN1CC(c2ccc(F)c(F)c2)C(C(=O)O)C1c1ccc(OC)cc1` (stereo not drawn) [Example 144, trans,trans-1-(N-Methyl-N-propylaminocarbonylmethyl)-2-(4-methoxyphenyl)-4-(3,4-difluorophenyl)pyrrolidine-3-carboxylic acid]: 78.2%; `CCCCCC1C(C(=O)O)C(c2ccc3c(c2)OCO3)CN1CC(=O)N(CCCC)CCCC` (stereo not drawn) [Example 92C, trans,trans-2-(Pentyl)-4-(1,3-benzodioxol-5-yl)-1-(N,N-di(n-butyl)aminocarbonylmethyl)pyrrolidine-3-carboxylic acid]: 107.4%.
Then `CCCCCS(=O)(=O)N(CCC)CCN1CC(c2ccc3c(c2)OCO3)C(C(=O)O)C1CCC` (stereo not drawn) [Example 314, trans,trans-2-(Propyl)-4-(1,3-benzodioxol-5-yl)-1-(2-(N-propyl-pentanesulfonylamino)ethyl)pyrrolidine-3-carboxylic acid], with 86.0%; and `CCCN(C)C(=O)CN1CC(c2ccc3ccoc3c2)C(C(=O)O)C1c1ccc(OC)cc1` (stereo not drawn) [Example 136, trans,trans-1-(N-Methyl-N-propylaminocarbonylmethyl)-2-(4-methoxyphenyl)-4-(6-benzofuranyl)pyrrolidine-3-carboxylic acid], with 79.4%; and `CCCN(C)C(=O)CN1CC(c2ccc3c(c2)CCC3)C(C(=O)O)C1c1ccc(OC)cc1` (stereo not drawn) [Example 142B, trans,trans-1-(N-Methyl-N-propylaminocarbonylmethyl)-2-(4-methoxyphenyl)-4-(5-indanyl)pyrrolidine-3-carboxylic acid], with 78.7%.
Consider `CCCN(C)C(=O)CN1CC(c2ccc(OC)cc2OC)C(C(=O)O)C1c1ccc(OC)cc1` (stereo not drawn) [Example 147, trans,trans-1-(N-Methyl-N-propylaminocarbonylmethyl)-2-(4-methoxyphenyl)-4-(2,4-dimethoxyphenyl)pyrrolidine-3-carboxylic acid], for which the “% Inhibition of ETA at 1 μM” value was determined as 73.0%.
Next, `CCCOCCN1CC(c2ccc3c(c2)OCO3)C(C(=O)O)C1c1ccc(OC)cc1` (stereo not drawn) [Example 5, trans,trans-2-(4-Methoxyphenyl)-4-(1,3-benzodioxol-5-yl)-1-(2-propoxyethyl)-pyrrolidine-3-carboxylic acid]: 95.1%; `CCCCN(CCCC)C(=O)CN1CC(c2ccc3c(c2)OCO3)C(C(=O)O)C1c1ccccc1F` (stereo not drawn) [Example 166, trans,trans-1-(N,N-Di(n-butyl)aminocarbonylmethyl)-2-(2-fluorophenyl)-4-(1,3-benzodioxol-5-yl)pyrrolidine-3-carboxylic acid]: 91.6%.
Then `CCCCN(CCCC)C(=O)CN1CC(c2ccc3c(c2)OCO3)C(C(=O)O)C1c1ccc(OC)c(F)c1` (stereo not drawn) [Example 313, trans—trans-2-(4-Methoxy-3-fluorophenyl)-4-(1,3-benzodioxol-5-yl)-1-[N,N-di(n-butyl)aminocarbonylmethyl]-pyrrolidine-3-carboxylic acid], with 96.3%; and `CCCCCN(CCCCC)C(=O)CN1CC(c2ccc3c(c2)OCO3)C(C(=O)O)C1c1ccc(OC)cc1` (stereo not drawn) [Example 35, trans,trans-2-(4-Methoxyphenyl)-4-(1,3-benzodioxol-5-yl)-1-(N,N-dipentylaminocarbonylmethyl)-pyrrolidine-3-carboxylic acid], with 91.8%; and `CCCN(CCN1C[C@H](c2ccc3c(c2)OCO3)[C@@H](C(=O)O)[C@@H]1c1ccc(OC)cc1)S(=O)(=O)N(C)C` (relative stereo) [Example 315, trans,trans-2-(4-Methoxyphenyl)-4-(1,3-benzodioxol-5-yl)-1-(2-(N-propyl-N-dimethylsulfamoylamino)ethyl)-pyrrolidine-3-carboxylic acid], with 82.7%.
As for `CCCCN(CCCC)C(=O)CN1CC(c2ccc3c(c2)CCO3)C(C(=O)O)C1c1ccc(C(C)(C)C)cc1` (stereo not drawn) [Example 154, trans,trans-1-(N,N-Di(n-butyl)aminocarbonylmethyl)-2-(4-t-butylphenyl)-4-(5-benzo-2,3-dihydrofuranyl)pyrrolidine-3-carboxylic acid], the “% Inhibition of ETA at 1 μM” value is 80.2%.
In the case of `CCCCCN(C)C(=O)CN1CC(c2ccc3c(c2)OCO3)C(C(=O)O)C1c1ccc(OC)cc1` (stereo not drawn) [Example 39, trans,trans-2-(4-Methoxyphenyl)-4-(1,3-benzodioxol-5-yl)-1-(N-methyl-N-pentylaminocarbonylmethyl)-pyrrolidine-3-carboxylic acid], the “% Inhibition of ETA at 1 μM” value worked out at 83.6%.
Next, `CCCCN(CCCC)C(=O)CN1CC(c2cccc(F)c2)C(C(=O)O)C1c1ccc(OC)cc1` (stereo not drawn) [Example 164, trans,trans-1-(N,N-Di(n-butyl)aminocarbonylmethyl)-2-(4-methoxyphenyl)-4-(3-fluorophenyl)pyrrolidine-3-carboxylic acid]: 98.6%; `COc1ccc(C2C(C(=O)O)C(c3ccc4c(c3)OCO4)CN2CC(=O)N2CCCC(C)(C)C2)cc1` (stereo not drawn) [Example 294, trans—trans-2-(4-Methoxyphenyl)-4-(1,3-benzodioxol-5-yl)-1-[3,3-dimethylpiperidinyl-carbonylmethyl]-pyrrolidine-3-carboxylic acid]: 77.7%.
